According to patent US6432959B1, “Inhibitors of farnesyl-protein transferase” (Schering Corporation, priority 1998, dated 2002):

Columns and labels:
[1] = biological target: T1, partially purified rat brain farnesyl protein transferase (FPT) (Rattus norvegicus, UniProt Q02293+Q04631); assay: FPT IC50, in vitro enzyme assay (inhibition of Ras-CVLS farnesylation); format: biochemical; conditions: inhibition of Ras-CVLS farnesylation by partially purified rat brain FPT; value is a range stated for a group of compounds
T1 construct: partially purified rat brain farnesyl protein transferase (FPT); from tissue; host or cells: rat brain
Description: 1. In vitro enzyme assays: FPT IC50 (inhibition of farnesyl protein transferase, in vitro enzyme assay) are determined by the methods disclosed in WO/10515 or WO95/10516.

Q: What does the source list for `CC(C)(C)NC(=O)N1CCN(Cc2ccccc2)C[C@@H]1C(=O)N(CCCn1ccnc1)Cc1ccccc1` [Example 28T, N1-(1,1-dimethylethyl)-N2-[3-(1H-imidazol-1-yl)propyl]-N2,4-bis(phenylmethyl)-1,2(R)-piperazinedicarboxamide]?
A: melting point: 57.8 °C; IC50 [1]: 0.18 to 21 nM
